From publication PMC2582943 (Antiviral Research, 2008)
“And” between values parts separate entries of the source, which are not always exact repeats. Equal entries are not always repeated. Structures can show the parent of a compound that is named as a salt. Where two headings read alike, the source gives them in different places.

Key:
Vero 76 cells = test: cells; assay type: cell-based, African green monkey
SARS-CoV (strain Urbani) [1] = test: microbe, parasite or virus in culture; assay type: cell-based
SARS-CoV (strain Urbani) [2] = test: microbe, parasite or virus in culture; assay type: cell-based; remark: listed apart in the source
SARS-CoV CHUK-W1 strain [3] = test: microbe, parasite or virus in culture; assay type: cell-based
[4] = tested on: SARS-CoV Toronto-2 strain; test: microbe, parasite or virus in culture; assay type: cell-based
[5] = tested on: SARS-CoV Frankfurt-1 strain; test: microbe, parasite or virus in culture; assay type: cell-based; details: read-out: Neutral red uptake assay EC50 ± S.D.
[6] = tested on: SARS-CoV Frankfurt-1 strain; test: microbe, parasite or virus in culture; assay type: cell-based
SARS-CoV CHUK-W1 strain [7] = test: microbe, parasite or virus in culture; assay type: cell-based; remark: listed apart in the source
[8] = tested on: SARS-CoV Toronto-2 strain; test: microbe, parasite or virus in culture; assay type: cell-based; remark: listed apart in the source
[9] = read-out: Neutral red uptake assay IC50
[10] = read-out: Virus yield reduction assay IC50
[11] = read-out: Virus yield reduction assay EC90
[12] = read-out: Neutral red uptake assay EC50
[13] = Chlorocebus sabaeus, Vero 76, read-out: Neutral red uptake assay IC50
[14] = Chlorocebus sabaeus, Vero 76, read-out: Virus yield reduction assay IC50
[15] = Severe acute respiratory syndrome coronavirus, Vero 76, read-out: Virus yield reduction assay EC90
[16] = Severe acute respiratory syndrome coronavirus, Vero 76, read-out: Neutral red uptake assay EC50
[17] = read-out: Neutral red uptake assay IC50 ± S.D.
[18] = read-out: Neutral red uptake assay EC50 ± S.D.
[19] = read-out: VYR assay EC90 ± S.D.
[20] = Severe acute respiratory syndrome coronavirus, Vero 76, read-out: Neutral red uptake assay EC50 ± S.D.
[21] = Severe acute respiratory syndrome coronavirus, Vero 76, read-out: VYR assay EC90 ± S.D.

SMILES | Virus yield reduction assay SI (SARS-CoV (strain Urbani) [1]) | EC90 (SARS-CoV (strain Urbani) [1]; [11]) | Inhibition of virus replication in vitro (in words) (SARS-CoV (strain Urbani) [2]) | Neutral red uptake assay SI (SARS-CoV (strain Urbani) [2]) | IC50 (Vero 76 cells; [13]) | IC50 (Vero 76 cells; [14]) | EC50 (SARS-CoV (strain Urbani) [2]; [16]) | also measured
OCCCN1c2ccccc2Sc2ccc(Cl)cc21 [2-Chloro-10-(3-chloropropanol)-10H-phenothiazine] | <1 | 27 ± 16.8 µM | essentially inactive | <1 | – | – | – | IC50 (Vero 76 cells; [9]): 20.8 ± 8.1 µM; IC50 (Vero 76 cells; [10]): 20.8 ± 8.1 µM; EC50 (SARS-CoV (strain Urbani) [2]; [12]): 23 ± 11 µM
c1ccc2c(c1)Oc1ccccc1S2 [Phenoxathiin] | 1.3 | – | – | 1.1 | 858 ± 208 µM | 968 ± 65 µM | 763 ± 475 µM | EC90 (SARS-CoV (strain Urbani) [1]; [15]): 752 ± 497 µM
CN1CCCC1CN1c2ccccc2Sc2ccccc21.Cl (stereo not drawn) [10-(1-Methyl-2-pyrrolidinymethyl)-phenothiazine·HCl] | – | 16.9 ± 9.7 µM | – | – | – | – | – | IC50 (Vero 76 cells; [9]): 39.9 ± 0.2 µM; IC50 (Vero 76 cells; [17]): 39.7 µM and 32.3 µM and 48 µM and 42.3 µM; IC50 (Vero 76 cells; [10]): 39.9 ± 0.2 µM; EC50 (SARS-CoV CHUK-W1 strain [3]; [18]): 19 ± 2.6 µM; EC90 (SARS-CoV (strain Urbani) [1]; [19]): 28.3 ± 12.9 µM; EC90 [4, 19]: 41.7 ± 4 µM; EC50 [5]: 24.3 ± 7.4 µM; EC90 [6, 19]: 23.7 ± 6 µM; EC90 (SARS-CoV CHUK-W1 strain [7]; [19]): 31.3 ± 14.2 µM; EC50 [8, 18]: 28.5 ± 8.1 µM
CC(=O)c1ccc2c(c1)N(CCCN1CCN(CCO)CC1)c1ccccc1S2 [Acetophenazine maleate] | – | – | – | – | – | 13.2 ± 1.6 µM | 6.6 ± 3.3 µM | IC50 (Vero 76 cells; Chlorocebus sabaeus, Vero 76, read-out: Neutral red uptake assay IC50 ± S.D.): 14.3 ± 6.4 µM; IC50 (Vero 76 cells; [17]): 18 µM and 15.5 µM and 13.7 µM; EC50 (SARS-CoV CHUK-W1 strain [3]; [20]): 9.6 ± 7.6 µM; EC90 (SARS-CoV (strain Urbani) [1]; [21]): 12.3 ± 2.1 µM; EC90 (SARS-CoV (strain Urbani) [1]; [15]): 10 ± 5 µM; EC90 [4, 21]: 13 µM; EC90 [6, 21]: 10 ± 5.2 µM; EC90 (SARS-CoV CHUK-W1 strain [7]; [21]): 11.2 ± 3.2 µM; EC50 [8, 20]: 11.5 ± 3.7 µM; EC50 (SARS-CoV (strain Urbani) [2]; [20]): 8.1 ± 1.4 µM
c1ccc2c(c1)Nc1ccccc1O2 [Phenoxazine] | – | – | essentially inactive | <1 | 74.5 ± 20.2 µM | – | – | –
CCC(=O)c1ccc2c(c1)N(CCCN(C)C)c1ccccc1S2 [Propionylpromazine·HCl] | 1.4 | – | essentially inactive | <1 | – | 19.3 ± 2.2 µM | 24.3 ± 15.6 µM | –
CN1CCN(CCCN2c3ccccc3Sc3ccc(C(F)(F)F)cc32)CC1 [Trifluoperazine dimaleate] | <1 | 10.2 ± 4.4 µM | – | 1.3 | 9.5 ± 3.1 µM | 8 ± 2.1 µM | 7.3 ± 4.7 µM | –
OCCN1CCN(CCCN2c3ccccc3Sc3ccc(Cl)cc32)CC1 [Perphenazine] | 1.9 | – | – | 1.6 | – | 15.8 ± 3.4 µM | – | EC50 (SARS-CoV (strain Urbani) [2]; [12]): 9.7 ± 1.2 µM
